# Patent publication US8859620B2, “Phthalanilate compounds and methods of use” (University of Notre Dame du Lac, priority 2009, dated 2014)
# Where two headings read alike, the source gives them in different places.
# How the values were obtained:
# PBP2a = PBP2a (Staphylococcus aureus, UniProt P07944); test: PBP2 assay (Villegas-Esterada et al.); type: biochemical; conditions: Table 10
# Experimental: (§1) β-Lactamase Assays (TEM-1, P99, and OXA-10): The activity of the compounds of the invention (inhibitors) toward β-lactamases was evaluated using 96 well plates. The reaction mixture included 10 mM sodium phosphate, pH 7.0, 150 mM sodium chloride, 0.01% Triton X-100, 100 μM nitrocefin, 10 nM of β-lactamases (class A: TEM-1; class C: P99, or class D: OXA-10), and variable concentrations of the inhibitors in a total volume of 100 μL. β-Lactamases were pre-incubated with the compounds at room temperature for 5 minutes, and the assay was initiated by the addition of nitrocefin. The inhibition of the enzyme activity by the compounds was determined by monitoring color change (from yellow to red) of nitrocefin after 20 minutes. Stock solutions of the compounds were prepared in dimethyl sulfoxide (DMSO). No more than 5% DMSO was present in assays, unless noted otherwise. B1aR Assay: The surface domain of B1aR (1 μM) was added to each inhibitor (at various concentrations) in 100 mM sodium phosphate, 50 mM sodium bicarbonate, at pH 7.0. The reaction mixtures were incubated at room temperature for 20 minutes. BOCILLIN FL, a fluorogenic ligand, was added to a concentration of 20 μM in a final volume of 20 μL. The mixtures were incubated at 37° C. for 5 minutes, at which point the reactions were quenched by the addition of 15 μL of the SDS sample buffer (125 mM Tris, 4% SDS, 20% glycerol, 2% 2-mercaptoethanol, pH 6.8), and were boiled for 4 minutes. The samples were loaded onto 15% SDS-PAGE, the gel was developed and scanned using a Storm 840® Fluorimager. The fluorescent bands of BOCILLIN FL-labeled B1aR^S were analyzed by Image Quant 5.2 software. PBP2 Assay: The PBP2 assay was performed according to the methods of Villegas-Esterada et al. (J. Am. Chem. Soc. 2008, 130, 9212-9213).
# [1] = biological target: OXA-10 (class D β-lactamase) (Pseudomonas aeruginosa, UniProt P14489); test: β-Lactamase assay (nitrocefin colour change), OXA-10; type: biochemical; conditions: for OXA-10: Table 10, class symbols x/xx/xxx, key not given; for IC50: nitrocefin 100 μM, 10 nM enzyme, 5 min pre-incubation, read-out: IC50s OXA-10
# Experimental: as §1
# [2] = biological target: TEM-1 (class A β-lactamase) (Escherichia coli, UniProt P62593); test: β-Lactamase assay (nitrocefin colour change), TEM-1; type: biochemical; conditions: for TEM-1: Table 10, class symbols x/xx/xxx, key not given
# Experimental: as §1
# S. aureus NRS11 (Mec^S) = test: MIC against S. aureus NRS11 (Table 13); type: cell-based, Staphylococcus aureus; conditions: for MIC: Staphylococcus aureus, compounds dissolved in DMSO or 1% sodium carbonate, read-out: MIC
# Experimental: All recited compounds were dissolved in DMSO or in 1% sodium carbonate and transferred to micro titer plates to final concentrations of 1000 μg/mL.
# [3] = biological target: P99 (class C β-lactamase) (Enterobacter cloacae, UniProt P05364); test: β-Lactamase assay (nitrocefin colour change), P99; type: biochemical; conditions: for P99: Table 10, class symbols x/xx/xxx, key not given; for IC50: nitrocefin 100 μM, 10 nM enzyme, 5 min pre-incubation, read-out: IC50s P99
# Experimental: as §1
# [4] = tested on: methicillin-resistant strains of S. aureus; test: MIC against methicillin-resistant S. aureus (Table 15); type: cell-based; conditions: Staphylococcus aureus, dissolved in 100% DMSO, diluted into Mueller Hinton II Broth to final 16 μg/mL
# Excerpt: Table 15 illustrates the inhibition of methicillin-resistant strains of S. aureus by selected compounds of the invention.
# S. aureus NRS100 (Mec^R) = test: MIC against S. aureus NRS100 (Table 14); type: cell-based, Staphylococcus aureus; conditions: for MIC: Staphylococcus aureus, compounds dissolved in DMSO or 1% sodium carbonate, read-out: MIC; for inhibitory activity (in words): Table 14
# Experimental: The recited compounds were dissolved in DMSO or in 1% sodium carbonate and transferred into micro titer plate to final concentration of 1000 μg/mL.
# surface domain of B1aR = surface domain of B1aR (Staphylococcus aureus, UniProt P18357); test: B1aR assay (BOCILLIN FL labeling, SDS-PAGE); type: binding, Staphylococcus aureus (MRSA); conditions: Table 10; class symbols x/xx/xxx, key not given
# Experimental: as §1
# [5] = tested on: Escherichia coli ATCC 29194; test: MIC, Table 12; type: cell-based; conditions: ATCC29194, Muller-Hinton II Broth
# [6] = tested on: Klebsiella pneumonia ATCC 33495; test: MIC, Table 12; type: cell-based; conditions: Klebsiella pneumoniae, ATCC33495, Muller-Hinton II Broth
# Experimental: (§2) Table 12 illustrates the results and the minimal inhibitory concentration (MIC) for S. aureus, Enterococcus faecalis, Pseudomonas aeruginosa, Klebsiella pneumonia, and Proteus mirabilis. The inoculum is about 1.5×10^5 CFU/mL. The minimal inhibitory concentrations (MIC) were done in Muller-Hinton II Broth with the exception of Enterococcus faecalis ATCC 29212, which was done in Brain Heart Infusion Broth. The concentration of DMSO at 200 μg/mL was 10%.
# [7] = tested on: Enterococcus faecalis ATCC 29212; test: MIC, Table 12; type: cell-based
# Experimental: as §2
# [8] = tested on: Staphylococcus aureus ATCC 29213; test: MIC, Table 12; type: cell-based
# Experimental: as §2
# [9] = tested on: Pseudomonas aeruginosa ATCC 27853; test: MIC, Table 12; type: cell-based; conditions: ATCC27853, Muller-Hinton II Broth
# Experimental: as §2
# [10] = tested on: Staphylococcus aureus NRS100 (COL); test: MIC, Table 12; type: cell-based
# Experimental: as §2
# [11] = tested on: Proteus mirabilis ATCC 35659; test: MIC, Table 12; type: cell-based; conditions: ATCC35659, Muller-Hinton II Broth
# Experimental: as §2
# [12] = tested on: Staphylococcus aureus NRS1 (Mec^r. Vani); test: MIC, Table 12; type: cell-based
# Experimental: as §2
# [13] = tested on: Staphylococcus aureus (COLVA); test: MIC, Table 12; type: cell-based
# Experimental: as §2
# P99 (class C β-lactamase), sequence (P05364 21-381): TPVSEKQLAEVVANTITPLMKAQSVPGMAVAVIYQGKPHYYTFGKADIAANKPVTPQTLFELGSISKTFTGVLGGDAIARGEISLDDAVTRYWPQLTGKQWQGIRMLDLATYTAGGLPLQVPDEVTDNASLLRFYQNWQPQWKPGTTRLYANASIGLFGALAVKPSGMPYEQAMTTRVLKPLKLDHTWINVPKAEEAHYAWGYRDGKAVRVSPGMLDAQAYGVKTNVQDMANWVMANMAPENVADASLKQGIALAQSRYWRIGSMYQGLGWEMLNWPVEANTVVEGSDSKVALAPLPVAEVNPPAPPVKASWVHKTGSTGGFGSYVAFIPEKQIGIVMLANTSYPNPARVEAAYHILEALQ
# surface domain of B1aR, sequence (P18357 331-585): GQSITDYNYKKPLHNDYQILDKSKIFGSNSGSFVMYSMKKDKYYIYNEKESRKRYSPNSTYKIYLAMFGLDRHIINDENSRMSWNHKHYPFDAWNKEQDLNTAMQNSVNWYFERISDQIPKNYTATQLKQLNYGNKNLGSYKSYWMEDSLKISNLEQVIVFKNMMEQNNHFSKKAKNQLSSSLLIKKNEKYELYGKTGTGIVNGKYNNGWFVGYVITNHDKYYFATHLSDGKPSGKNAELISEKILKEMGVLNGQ
# OXA-10 (class D β-lactamase), sequence (P14489 20-266, species assumed): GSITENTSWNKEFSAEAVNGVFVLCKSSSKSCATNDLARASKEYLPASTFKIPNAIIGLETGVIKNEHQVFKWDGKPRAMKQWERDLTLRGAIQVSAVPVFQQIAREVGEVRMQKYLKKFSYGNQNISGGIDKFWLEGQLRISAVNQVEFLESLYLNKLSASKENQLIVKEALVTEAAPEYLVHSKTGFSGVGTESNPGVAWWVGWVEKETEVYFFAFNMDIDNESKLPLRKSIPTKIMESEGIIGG
# PBP2a, sequence (P07944 whole entry): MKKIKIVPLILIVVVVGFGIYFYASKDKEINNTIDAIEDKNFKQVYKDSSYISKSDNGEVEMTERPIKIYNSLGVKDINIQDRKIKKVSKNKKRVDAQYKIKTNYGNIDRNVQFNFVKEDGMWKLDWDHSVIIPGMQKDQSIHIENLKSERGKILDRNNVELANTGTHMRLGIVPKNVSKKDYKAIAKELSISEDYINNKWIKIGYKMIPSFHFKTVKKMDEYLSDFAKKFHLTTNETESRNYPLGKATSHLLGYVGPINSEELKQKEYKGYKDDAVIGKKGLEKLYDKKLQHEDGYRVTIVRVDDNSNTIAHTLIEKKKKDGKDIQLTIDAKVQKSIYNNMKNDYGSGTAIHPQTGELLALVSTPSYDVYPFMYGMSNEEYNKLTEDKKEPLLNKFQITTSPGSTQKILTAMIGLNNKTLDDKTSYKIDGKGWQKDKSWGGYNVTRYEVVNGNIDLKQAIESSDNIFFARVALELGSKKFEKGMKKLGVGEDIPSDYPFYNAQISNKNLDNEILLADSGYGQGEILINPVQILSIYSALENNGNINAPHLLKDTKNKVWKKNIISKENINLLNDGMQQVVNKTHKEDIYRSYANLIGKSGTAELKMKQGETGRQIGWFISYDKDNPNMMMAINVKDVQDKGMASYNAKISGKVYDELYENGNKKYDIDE
# TEM-1 (class A β-lactamase), sequence (P62593 24-286 limits assumed): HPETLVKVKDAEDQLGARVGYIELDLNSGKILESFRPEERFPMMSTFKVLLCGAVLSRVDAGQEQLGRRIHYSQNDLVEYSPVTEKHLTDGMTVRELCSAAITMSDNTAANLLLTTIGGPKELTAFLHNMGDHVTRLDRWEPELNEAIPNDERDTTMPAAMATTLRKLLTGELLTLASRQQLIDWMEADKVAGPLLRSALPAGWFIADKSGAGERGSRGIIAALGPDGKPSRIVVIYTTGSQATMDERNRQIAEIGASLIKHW
Structure (SMILES),PBP2a* (inhibitory concentration) (PBP2a),OXA-10 [1],IC50 [1] [µM],IC50 [2] [µM],TEM-1 [2],P99 [3],IC50 [3] [µM],MIC [4] [µg/mL],MIC (S. aureus NRS100 (Mec^R)) [µg/mL],BlaR (surface domain of B1aR),other results
O=C(O)c1c(Br)c(Br)c(Br)c(Br)c1C(=O)Nc1ccc(OCc2cccc(C(F)(F)F)c2)c(Cl)c1 [Compound 390],xxx,xxx,14.2 ± 1.1,1.9 ± 0.1,xxx,xxx,6 ± 0.8,8,< 8,–,MIC (S. aureus NRS11 (Mec^S)): < 8 µg/mL; inhibitory activity (in words) (S. aureus NRS100 (Mec^R)): significant inhibitory activity
O=C(O)c1c(Cl)c(Cl)c(Cl)c(Cl)c1C(=O)Nc1ccc(Oc2cc(C(F)(F)F)cc(C(F)(F)F)c2)cc1 [Compound 413],xxx,xxx,80.8 ± 7,27 ± 2.9,xxx,xxx,31.2 ± 6.4,16,8,–,–
O=C(O)c1c(Br)c(Br)c(Br)c(Br)c1C(=O)Nc1ccc(OCc2cccc(OC(F)(F)F)c2)c(Cl)c1 [Compound 420],xxx,xxx,8.4 ± 1.1,1.6 ± 0.1,xxx,xx,6.9 ± 1.5,4,8,xxx,–
O=C(O)c1c(Br)c(Br)c(Br)c(Br)c1C(=O)Nc1ccc(OCc2ccccc2)c(Cl)c1 [Compound 239],–,–,–,–,–,–,–,–,–,–,"MIC [5]: 400 µg/mL; MIC [6]: 200 µg/mL; MIC ([7]; ATCC29212, Enterococcus faecalis ATCC 29212, Brain Heart Infusion Broth, inoculum about 1.5×10^5 CFU/mL, read-out: MIC): 200 µg/mL; MIC ([8]; ATCC29213, Staphylococcus aureus ATCC 29213, Muller-Hinton II Broth, read-out: MIC): 25 µg/mL; MIC [9]: 200 µg/mL; MIC ([10]; Staphylococcus aureus NRS100 (COL), Muller-Hinton II Broth, read-out: MIC): 100 µg/mL; MIC [11]: 400 µg/mL; MIC ([12]; Staphylococcus aureus NRS1 (Mec^r. Vani), Muller-Hinton II Broth, read-out: MIC): 50 µg/mL; MIC ([13]; Staphylococcus aureus): 25 µg/mL"
CCCCCCCCOc1ccc(NC(=O)c2c(Cl)c(Cl)c(Cl)c(Cl)c2C(=O)O)cn1 [Compound 345],–,xxx,37.9 ± 6,4.9 ± 0.2,xxx,xxx,27.8 ± 2.9,16,16,–,MIC (S. aureus NRS11 (Mec^S)): 16 µg/mL; inhibitory properties (in words) (S. aureus NRS11 (Mec^S); Table 13): significant inhibitory properties; inhibitory activity (in words) (S. aureus NRS100 (Mec^R)): significant inhibitory activity
Cc1ccccc1COc1ccc(NC(=O)c2c(Br)c(Br)c(Br)c(Br)c2C(=O)O)cc1Cl [Compound 386],xxx,xxx,31.6 ± 3.5,7.4 ± 1.2,xxx,xxx,15.3 ± 1.6,16,8,xxx,–
O=C(O)c1c(Cl)c(Cl)c(Cl)c(Cl)c1C(=O)Nc1ccc(OCc2cccc(OC(F)(F)F)c2)c(Cl)c1 [Compound 419],xxx,xxx,10.8 ± 0.7,2.3 ± 0.1,xxx,xx,13 ± 2,8,8,xxx,–
"CN[C@H](CC(C)C)C(=O)N[C@H]1C(=O)N[C@@H](CC(N)=O)C(=O)N[C@H]2C(=O)N[C@H]3C(=O)N[C@H](C(=O)N[C@H](C(=O)O)c4cc(O)cc(O)c4-c4cc3ccc4O)[C@H](O)c3ccc(c(Cl)c3)Oc3cc2cc(c3O[C@@H]2O[C@H](CO)[C@@H](O)[C@H](O)[C@H]2O[C@H]2C[C@](C)(N)[C@H](O)[C@H](C)O2)Oc2ccc(cc2Cl)[C@H]1O [Vancomycin, reference compound]",–,–,–,–,–,–,–,–,–,–,"MIC ([7]; Enterococcus faecalis, ATCC29212): 4 µg/mL; MIC ([8]; Staphylococcus aureus, ATCC29213): 1 µg/mL; MIC ([10]; Staphylococcus aureus, NRS100): 1 µg/mL; MIC ([12]; Staphylococcus aureus, NRS1): 4 µg/mL; MIC ([13]; Staphylococcus aureus): 1000 µg/mL"
CCCCCCCCOc1ccc(NC(=O)c2ccccc2C(=O)O)cc1Cl [Compound 300],xxx,xx,30.7 ± 2.8,0.7 ± 0.08,xxx,xx,10.3 ± 0.4,16,8,–,–
O=C(O)c1c(Br)c(Br)c(Br)c(Br)c1C(=O)Nc1ccc(Oc2cc(C(F)(F)F)cc(C(F)(F)F)c2)cc1 [Compound 414],xxx,xxx,19.5 ± 2,4.5 ± 0.4,xxx,xxx,12 ± 0.5,4,4,xxx,–
"Cc1onc(-c2ccccc2)c1C(=O)N[C@@H]1C(=O)N2[C@@H]1SC(C)(C)[C@@H]2C(=O)O [Oxaxillian, reference compound]",–,–,–,–,–,–,–,–,–,–,"MIC ([7]; Enterococcus faecalis ATCC 29212, Brain Heart Infusion Broth, inoculum about 1.5×10^5 CFU/mL): 8 µg/mL; MIC ([8]; Staphylococcus aureus ATCC 29213, Muller-Hinton II Broth): <0.5 µg/mL; MIC ([10]; Staphylococcus aureus NRS100 (COL), Muller-Hinton II Broth): 500 µg/mL; MIC ([12]; Staphylococcus aureus NRS1 (Mec^r. Vani), Muller-Hinton II Broth): 500 µg/mL; MIC ([13]; Staphylococcus aureus (COLVA), Muller-Hinton II Broth): 500 µg/mL"
CCCCCCCCOc1ccc(NC(=O)c2c(Br)c(Br)c(Br)c(Br)c2C(=O)O)cc1Cl [Compound 303],–,–,–,–,–,–,–,4,4,xx,–
